From US9891235B2, “Pathway specific assays for predicting irritable bowel syndrome diagnosis” (NESTEC S.A., priority 2013, dated 2018)

Experiments:
anti-KYA-L antibody = assay: Competitive assay with biotinylated kynurenic acid, competitors; assay type: binding, rabbit; details: increasing amounts of competitor, FIG. 18
Protocol: Also, the cross-reactivity of the antiserum was tested using a competitive assay as diagramed in FIG. 12B. The biotinylated antigen (e.g., biotinylated Ser-D) was coated onto a streptavidin plate. Serotonin (5-HT) or pathway metabolites thereof (e.g., Tryp, 5-OH Tryp or 5-HIAA) in human serum were derivatized and added to the antiserum. The mixture was added to the plate and incubated for 1 hour at RT. The plate was washed several times with wash buffer. The goat anti-rabbit antibody-HRP conjugate solution was added and incubated for 1 hour at RT. The plate was washed several times in wash buffer. A color substrate was added for the colorimetric reaction and stop solution was added prior to reading the plate at 405 nm.
The cross-reactivity of the anti-KYA-L antibody was tested using the competitive assay described above. Briefly, kynurenic acid metabolites, such as L-kynurenine (Ky), 3-hydroxy-DL-kynurenine (H-Ky) and L-tryptophan (Tryp) were used to compete with biotinylated kynurenic acid for antibody binding.

[1] = Stability of 5-HT and 5-HIAA (TLC, loss of signal); assay type: physicochemical

| Compound | effect of competitor on level of anti-KYA-L detected (anti-KYA-L antibody) | sensitivity to oxygen / stability [1] | time in which degradation occurs ([1]; 4° C., from thawing, TLC (FIG. 3)) | stability (FIG. 4) ([1]; during a period of 1 week) |
| --- | --- | --- | --- | --- |
| Nc1c(O)cccc1C(=O)CC(N)C(=O)O (racemic) [H-Ky, 3-hydroxy-DL-kynurenine] | did not change | – | – | – |
| NCCc1c[nH]c2ccc(O)cc12 [Compound 5-HT, serotonin] | – | very unstable | about 7 hours | unstable |
| NCCCCCC(=O)Nc1ccc2nc(C(=O)O)cc(O)c2c1 [KYA-L, 6-(6-aminohexanamido)-4-hydroxyquinoline-2-carboxylic acid] | competed | – | – | – |
| Nc1ccccc1C(=O)C[C@H](N)C(=O)O [Ky, L-kynurenine] | did not change | – | – | – |
| N[C@@H](Cc1c[nH]c2ccccc12)C(=O)O [Trypt, L-tryptophan] | did not change | – | – | – |
